Laboratory results from ChEMBL document CHEMBL1201862, “PubChem BioAssay data set” (2004).
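These data come from cells grown in 96-well plates and exposed to compound for 48 hours at five concentrations. Abbreviation: GI50, concentration required for 50% inhibition of growth.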 The source made the active and inactive calls. Rule as the data show it: active = GI50 up to about 1.1 µM and inactive = higher.

Assays:
Test in all cases: DTP human tumour cell line panel, 48 h
RXF 393 = tested on: RXF 393
HL-60 = tested on: HL-60
OVCAR-8 = tested on: OVCAR-8
OVCAR-5 = tested on: OVCAR-5
SR = tested on: SR
HCT-15 = tested on: HCT-15
A549 = tested on: A549
NCI-H460 = tested on: NCI-H460
MDA-MB-435 = tested on: MDA-MB-435
SK-MEL-28 = tested on: SK-MEL-28
UACC-62 = tested on: UACC-62
OVCAR-3 = tested on: OVCAR-3
K562 = tested on: K562
COLO 205 = tested on: COLO 205
TK-10 = tested on: TK-10
A498 = tested on: A498
PC-3 = tested on: PC-3
SN12C = tested on: SN12C
SF-295 = tested on: SF-295
NCI-H23 = tested on: NCI-H23

## Cc1cc(S(=O)(=O)N=C2NCC(C)(C)CN2)c(S)cc1Cl
RXF 393
  GI50: 38 µM (inactive)
HL-60
  GI50: 25.8 µM (inactive)
OVCAR-8
  GI50: 27 µM (inactive)
OVCAR-5
  GI50: 23.1 µM (inactive)
SR
  GI50: 37.9 µM (inactive)
HCT-15
  GI50: 42.7 µM
A549
  GI50: 19 µM (inactive)
NCI-H460
  GI50: 27.3 µM (inactive)
MDA-MB-435
  GI50: 23.2 µM (inactive)
SK-MEL-28
  GI50: 36.6 µM (inactive)
UACC-62
  GI50: 25.3 µM (inactive)
OVCAR-3
  GI50: 35.7 µM (inactive)
K562
  GI50: 25.5 µM (inactive)
COLO 205
  GI50: 47.3 µM (inactive)
TK-10
  GI50: 39 µM (inactive)
A498
  GI50: > 100 µM (inactive)
PC-3
  GI50: 30.3 µM (inactive)
SN12C
  GI50: 47.1 µM (inactive)

## O=C(NC(Nc1ccc(F)c(Cl)c1)(C(F)(F)F)C(F)(F)F)C(C(F)(F)F)C(F)(F)F
RXF 393
  GI50: 23.2 µM (inactive)
HL-60
  GI50: 15.6 µM (inactive)
OVCAR-8
  GI50: 25.9 µM (inactive)
OVCAR-5
  GI50: 23.9 µM (inactive)
SR
  GI50: 28.2 µM (inactive)
HCT-15
  GI50: 18.1 µM
A549
  GI50: 27.2 µM (inactive)
NCI-H460
  GI50: 36.1 µM (inactive)
MDA-MB-435
  GI50: 26.5 µM (inactive)
SK-MEL-28
  GI50: 50.7 µM (inactive)
OVCAR-3
  GI50: 26.9 µM (inactive)
K562
  GI50: 14.5 µM (inactive)
SF-295
  GI50: 36.5 µM (inactive)
COLO 205
  GI50: 28.5 µM (inactive)
TK-10
  GI50: 36.4 µM (inactive)
A498
  GI50: 44.3 µM (inactive)
NCI-H23
  GI50: 23.3 µM (inactive)
PC-3
  GI50: 24.8 µM (inactive)
SN12C
  GI50: 32.5 µM (inactive)

## NCCc1ccc(S(=O)(=O)O)cc1[N+](=O)[O-]
RXF 393
  GI50: > 100 µM (inactive)
HL-60
  GI50: > 100 µM (inactive)
OVCAR-8
  GI50: > 100 µM (inactive)
OVCAR-5
  GI50: > 100 µM (inactive)
SR
  GI50: 4.71 µM (inactive)
HCT-15
  GI50: > 100 µM
A549
  GI50: > 100 µM (inactive)
NCI-H460
  GI50: > 100 µM (inactive)
MDA-MB-435
  GI50: > 100 µM (inactive)
SK-MEL-28
  GI50: > 100 µM (inactive)
UACC-62
  GI50: > 100 µM (inactive)
OVCAR-3
  GI50: > 100 µM (inactive)
SF-295
  GI50: > 100 µM (inactive)
COLO 205
  GI50: > 100 µM (inactive)
TK-10
  GI50: > 100 µM (inactive)
A498
  GI50: > 100 µM (inactive)
NCI-H23
  GI50: > 100 µM (inactive)
PC-3
  GI50: > 100 µM (inactive)
SN12C
  GI50: > 100 µM (inactive)

## O=C(O)C(Oc1nc(S)nc(S)n1)(c1ccc(Cl)cc1)c1ccc(Cl)cc1
RXF 393
  GI50: > 100 µM (inactive)
HL-60
  GI50: > 100 µM (inactive)
OVCAR-8
  GI50: > 100 µM (inactive)
OVCAR-5
  GI50: > 100 µM (inactive)
SR
  GI50: > 100 µM (inactive)
HCT-15
  GI50: > 100 µM
A549
  GI50: > 100 µM (inactive)
NCI-H460
  GI50: > 100 µM (inactive)
MDA-MB-435
  GI50: > 100 µM (inactive)
SK-MEL-28
  GI50: > 100 µM (inactive)
UACC-62
  GI50: > 100 µM (inactive)
OVCAR-3
  GI50: > 100 µM (inactive)
K562
  GI50: > 100 µM (inactive)
SF-295
  GI50: > 100 µM (inactive)
COLO 205
  GI50: > 100 µM (inactive)
TK-10
  GI50: > 100 µM (inactive)
A498
  GI50: > 100 µM (inactive)
NCI-H23
  GI50: > 100 µM (inactive)
PC-3
  GI50: > 100 µM (inactive)
SN12C
  GI50: > 100 µM (inactive)
